Drawing on US12377601B2, “Fast-eluting three-dimensionally molded object, filament for fast-eluting three-dimensionally molded object, and material for fast-eluting three-dimensionally molded object” (ASTELLAS PHARMA INC., priority 2016, dated 2025), this text covers solubility for one compound.

A short description of this data set: Solubility of the active component in Japanese Pharmacopoeia dissolution test fluids. It counts as physicochemical. As for the experimental part: As specific materials, N^2-[(2E)-3-(4-chlorophenyl)-2-propenoyl]-N-[2-oxo-2-(4-{[6-(trifluoromethyl)pyrimidine-4-yl]oxy}piperidine-1-yl)ethyl]-3-pyridine-2-yl-L-alaninamide (manufactured by Astellas Pharma Inc., a solubility to a dissolution test 1st fluid of the Japanese Pharmacopoeia: >100 µM, a solubility to a dissolution test 2nd fluid of the Japanese Pharmacopoeia: 23.2 µM, hereinafter abbreviated as a compound A) was selected as an active component, Poly(vinyl alcohol) [MW 6000] (manufactured by Polysciences, Inc., the same hereinafter unless otherwise specified) was selected as a thermoplastic polymer, maltitol (SweetPearl P200, manufactured by Roquette, the same hereinafter unless otherwise specified) was selected as a sugar alcohol, and Triethyl Citrate (manufactured by Tokyo Chemical Industry Co., Ltd., the same hereinafter unless otherwise specified) was selected as a plasticizer component.

In brackets after ≈: the same amount, converted by molar mass. Where two headings read alike, the source gives them in different places. Where only a bound is given, the exact number is not on record here.

Take `O=C(/C=C/c1ccc(Cl)cc1)N[C@@H](Cc1ccccn1)C(=O)NCC(=O)N1CCC(Oc2cc(C(F)(F)F)ncn2)CC1` [compound A, N^2-[(2E)-3-(4-chlorophenyl)-2-propenoyl]-N-[2-oxo-2-(4-{[6-(trifluoromethyl)pyrimidine-4-yl]oxy}piperidine-1-yl)ethyl]-3-pyridine-2-yl-L-alaninamide]: the solubility (commonly how much of the substance goes into solution per volume) by setting is: (dissolution test 1st fluid of the Japanese Pharmacopoeia, pH 1.2, simulated gastric fluid, read-out: solubility to a dissolution test 1st fluid of the Japanese Pharmacopoeia) more than 100 µM; (dissolution test 2nd fluid of the Japanese Pharmacopoeia, pH 6.8, aqueous buffer, read-out: solubility to a dissolution test 2nd fluid of the Japanese Pharmacopoeia) 23.2 µM (≈ 14.3 µg/mL).
